Experimental data published in patent US20070280975A1, “Method for Producing Maca Extract” (Suntory Limited, priority 2004, published 2007).

System: mast cells
Assay: Suppressive effect on the isolation of histamine from mast cells (compound 48/80 induced)
Type: cell-based, Wister rats
Details: DSCG 0.1 mg/mL; same line of test procedures
Method: The anti-allergic effects of the Maca extract of the present invention can be evaluated by the suppressive effect on the isolation of histamine from mast cells. The Suppressive Effect on the Isolation of Histamine from Mast Cells The test was conducted according to the method of Yuko HIRAI, et al. (Natural Medicines: Vol. 37, p374-380, 1983). That is, Tyrode was interperitoneally injected to Wister rats bled to death and peritoneal cavity cells were taken. Therefrom, mast cells were isolated by the multilevel centrifugal method using Bovine Serum Albumin (BSA)/physiological saline (relative gravity: 1.068). […] The resultant was then ice cooled and amount of histamine in the supernatant after centrifugation (150 g×5 minutes) was measured by high performance liquid chromatography with fluorescence detector attachment. […] The solution obtained was each measured to 0.25 mg/mL, and the above explained suppressive effect on the isolation of histamine from mast cell was evaluated. On the other hand, the above explained suppressive effect on the isolation of histamine from mast cell was evaluated for control solutions 1 to 3 which were obtained in the same procedures as for the solutions of the present invention except for extraction condition such as extraction temperature and ethanol concentration.

Structure (SMILES): O=C(O)c1cc(=O)c2c(OCC(O)COc3cccc4oc(C(=O)O)cc(=O)c34)cccc2o1 [DSCG, sodium cromoglycate]
- suppressive effect on isolation of histamine: 50%
